Data on seven compounds can be found in PMC7070694, “Identification of New Peptides from Fermented Milk Showing Antioxidant Properties: Mechanism of Action” (Antioxidants, 2020).

The structures appear in SMILES notation. Peptide text beside a SMILES is read from it.

One data set has as its system Caco-2 cell monolayer. Briefly: Transepithelial transport through Caco-2 cell monolayers (Transwell). In kind it is in vitro ADME. The conditions noted are these: Caco-2 monolayer on Transwell, 21 days, TEER > 1100 Ω × cm^2, 75 µg peptide in 0.75 mL HBSS apical, 37 °C, RP-HPLC UV 220 nm, mean ± SD, n. d. = not detected with RP-HPLC; for RP-HPLC Estimation AP (%): 120 min after 30 min equilibration, apical compartment, % of total peptide added; for RP-HPLC Estimation BL (%): A-B, 120 min, basolateral compartment, % of initial peptide added apically. As to the method: Caco-2 cells were obtained from DISCOG (University of Padova, Padova, Italy). The cells cultured in DMEM (high glucose) supplemented with 10% FBS, were used between 35 and 60 passages. In order to perform transepithelial transport, 8 × 10^4 cells were seeded on Transwell^© cell culture inserts (0.4 µm pore sizes, 12 mm diameter, 1.12 cm^2 grown surface; Corning Life Sciences, Tewksbury, MA, USA). Cells were grown, differentiated for 21 days and the monolayer integrity was estimated by transepithelial electrical resistance (TEER) (Millicell® ERS-2 volt-ohmmeter, EDM Millipore, Darmstadt, Germany) showing values higher than 1100 Ω × cm^2.
The intestinal barrier crossing capacity of the fractions or synthetic peptides through Caco-2 cells monolayer was evaluated using Transwell® insert model according to Tonolo et al.. Briefly, after 21 days of culturing, Caco-2 cells differentiated forming a monolayer that delimited an upper part (apical compartment) and lower part (basolateral compartment). The monolayer was rinsed three times with Hank’s balanced salt solution (HBSS) and 10 mM D-glucose and equilibrated for 30 min at 37 °C. After, cells were incubated in the presence of 0.75 mL HBSS containing 150 µg fraction or 75 µg peptide in the apical chamber at 37 °C for 120 min. Samples collected from both compartments (apical and basolateral) at different times were centrifuged at 11,600× g, filtered with 0.45 µm filter, frozen and lyophilized. Subsequently, the obtained samples were dissolved in 100 µL of 0.1% TFA aqueous solution and evaluated by RP-HPLC and Matrix assisted laser desorption/ionization- time of flight/time of flight mass spectrometry (MALDI-TOF/TOF MS).
The apical and basolateral compartments were evaluated in RP-HPLC using a column Onyx Monolithic C18 100 mm × 4.6 mm, LC column (Phenomenex, Torrance, CA, USA) with a Waters 2695 Separation Module (Milfold, MA, USA) with a Waters 996 Photodiode Array Detector. Separations were performed with a linear gradient from 0–60% ACN in the presence of 0.1% TFA over 20 min at a constant flow rate of 2 mL/min monitoring the peaks by UV detection (λ = 220 nm).
Subsequently, the obtained fractions were analysed with a MALDI-TOF/TOF 4800 mass spectrometer (AB Sciex, Framingham, MA, USA). After an initial full MS scan, enlargements on the MS signals of interest were acquired. For the basolateral fractions, the samples, after lyophilisation, were dissolved in 50 µL of 25% ACN and 0.1% TFA. The analysis was then performed on 2 µL of these solutions mixed with 2 µL of peptide MALDI matrix α-cyano-4-hydroxycynnamic acid (10 mg/mL aqueous 70% acetonitrile/0.1% TFA). The following analytical conditions were set for MALDI-TOF spectra acquisition: positive ion reflector mode, initial mass range 500–3500 Da (the mass range was then adapted for each enlargement), variable laser intensity (3000–3800), shots/sub-spectrum 50, total shots/spectrum 1500 and accelerating voltage of 20 kV. Final data analysis and fragments identification were done on Data Explorer software (AB Sciex, Framingham, MA, USA), utilizing external mass calibration performed with mass peptide standards (Sigma-Aldrich, St Louis, MO, USA).
In order to evaluate the intestinal crossing capacity of the four peptides, Transwell® insert model peptide absorption, was performed. […] After 10 min and 120 min, apical and basolateral compartments were collected and analyzed by RP-HPLC and mass spectrometry.

The nature of data set [1]: MTT cell viability (cytotoxicity). In kind it is cell-based. The conditions noted are these: human, Caco-2 cells (1 × 10^4), synthetic peptides 0.05 mg/mL, no TbOOH, mean ± SD of at least three experiments, read-out: Percentage of Cell Viability, None (c).

On to `CC[C@H](C)[C@H](NC(=O)[C@H](CCCCN)NC(=O)[C@H](CC(=O)O)NC(=O)[C@H](CCC(N)=O)NC(=O)[C@H](CC(C)C)NC(=O)[C@H](CCC(=O)O)NC(=O)[C@H](CC(=O)O)NC(=O)[C@@H](N)CCC(=O)O)C(=O)N[C@@H](Cc1c[nH]cn1)C(=O)N1CCC[C@H]1C(=O)N[C@@H](Cc1ccccc1)C(=O)O` [E-11-F] (H-EDELQDKIHPF-OH), for which, in the data set on Caco-2 cell monolayer, the “RP-HPLC Estimation AP (%)” value is reported as 88.28 ± 5.89% and the “RP-HPLC Estimation BL (%)” value is reported as 0.21 ± 0.01%. In addition, the viability at 24 h, 50 µg/mL in data set [1] came to 112 ± 13.5%.

With `CC[C@H](C)[C@H](N)C(=O)N[C@H](C(=O)N[C@@H](CC(C)C)C(=O)N[C@@H](CC(N)=O)C(=O)N1CCC[C@H]1C(=O)N[C@@H](Cc1c[nH]c2ccccc12)C(=O)N[C@@H](CC(=O)O)C(=O)N[C@@H](CCC(N)=O)C(=O)N[C@H](C(=O)N[C@@H](CCCCN)C(=O)N[C@@H](CCCNC(=N)N)C(=O)O)C(C)C)C(C)C` [I-11-R] (H-IVLNPWDQVKR-OH), the “RP-HPLC Estimation AP (%)” value in the data set with Caco-2 cell monolayer is 1.47 ± 0.19%.

Turning to `CC[C@H](C)[C@H](NC(=O)[C@@H]1CCCN1C(=O)CNC(=O)[C@@H](N)CCC(N)=O)C(=O)N[C@H](C(=O)N[C@@H](CC(C)C)C(=O)N[C@@H](CC(N)=O)C(=O)N1CCC[C@H]1C(=O)N[C@@H](Cc1c[nH]c2ccccc12)C(=O)N[C@@H](CC(=O)O)C(=O)N[C@@H](CCC(N)=O)C(=O)N[C@H](C(=O)N[C@@H](CCCCN)C(=O)N[C@@H](CCCNC(=N)N)C(=O)O)C(C)C)C(C)C` [Q-14-R] (H-QGPIVLNPWDQVKR-OH), in the data set on Caco-2 cell monolayer, the “RP-HPLC Estimation AP (%)” value is 87.59 ± 12.18% and the “RP-HPLC Estimation BL (%)” value is reported as 0.02 ± 0.01%. Also, the viability at 24 h, 50 µg/mL in data set [1] worked out at 115 ± 15.6%.

In the case of `CC[C@H](C)[C@H](NC(=O)[C@@H]1CCCN1C(=O)[C@H](CC(N)=O)NC(=O)[C@@H]1CCCN1C(=O)[C@@H](NC(=O)[C@H](CC(=O)O)NC(=O)[C@H](CO)NC(=O)[C@H](Cc1ccccc1)NC(=O)[C@H](CO)NC(=O)[C@@H]1CCCN1C(=O)[C@H](C)N)[C@@H](C)CC)C(=O)NCC(=O)N[C@@H](CO)C(=O)N[C@@H](CCC(=O)O)C(=O)N[C@@H](CC(N)=O)C(=O)N[C@@H](CO)C(=O)O` [A-16-S] (H-APSFSDIPNPIGSENS-OH), the “RP-HPLC Estimation AP (%)” value in the data set on Caco-2 cell monolayer was 3.22 ± 0.00%.

Consider `CSCC[C@H](NC(=O)[C@@H](NC(=O)[C@@H](NC(=O)[C@@H]1CCCN1C(=O)[C@H](CCC(N)=O)NC(=O)[C@H](C)NC(=O)[C@H](CCC(N)=O)NC(=O)[C@H](CS)NC(=O)[C@H](CO)NC(=O)[C@H](CCCCN)NC(=O)[C@H](C)NC(=O)[C@@H]1CCCN1C(=O)[C@@H](NC(=O)[C@@H](NC(=O)[C@@H](N)CC(N)=O)[C@@H](C)O)C(C)C)[C@@H](C)O)[C@@H](C)O)C(=O)O` [N-15-M] (H-NTVPAKSCQAQPTTM-OH), for which, in the data set with Caco-2 cell monolayer, the “RP-HPLC Estimation AP (%)” value is given as 60.76 ± 8.83% and the “RP-HPLC Estimation BL (%)” value is 0.13 ± 0.04%. Further, the viability at 24 h, 50 µg/mL in data set [1] was 108 ± 5.96%.

As for `CC[C@H](C)[C@H](NC(=O)[C@@H]1CCCN1C(=O)[C@H](CC(N)=O)NC(=O)[C@@H]1CCCN1C(=O)[C@@H](NC(=O)[C@H](CC(=O)O)NC(=O)[C@H](CO)NC(=O)[C@@H](N)Cc1ccccc1)[C@@H](C)CC)C(=O)NCC(=O)N[C@@H](CO)C(=O)N[C@@H](CCC(=O)O)C(=O)N[C@@H](CC(N)=O)C(=O)N[C@@H](CO)C(=O)N[C@@H](CCC(=O)O)C(=O)O` [F-14-E] (H-FSDIPNPIGSENSE-OH), the “RP-HPLC Estimation AP (%)” value with Caco-2 cell monolayer is given as 3.07 ± 0.60%.

For the compound `CC[C@H](C)[C@H](NC(=O)[C@@H]1CCCN1C(=O)[C@H](CC(N)=O)NC(=O)[C@@H]1CCCN1C(=O)[C@@H](NC(=O)[C@H](CC(=O)O)NC(=O)[C@H](CO)NC(=O)[C@H](Cc1ccccc1)NC(=O)[C@H](CO)NC(=O)[C@@H]1CCCN1C(=O)[C@H](C)N)[C@@H](C)CC)C(=O)NCC(=O)N[C@@H](CO)C(=O)N[C@@H](CCC(=O)O)C(=O)N[C@@H](CC(N)=O)C(=O)N[C@@H](CO)C(=O)N[C@@H](CCC(=O)O)C(=O)O` [A-17-E] (H-APSFSDIPNPIGSENSE-OH), in the data set on Caco-2 cell monolayer, the “RP-HPLC Estimation AP (%)” value is 68.4 ± 4.6% and the “RP-HPLC Estimation BL (%)” value is listed as 0.05 ± 0.03%. For the same compound, in data set [1], the viability at 24 h, 50 µg/mL turned out to be 108 ± 13.2%.

A word on the viability: it is a read-out of living cells in per cent, often relative to untreated cells.
